The subject of one test is Hsp90 (SKBr3 lysate). Nature of the test: Hsp90 binding assay (fluorescence polarization, cy3B-GM displacement), human cancer cell lysate. Conditions: lysate not given. As for the experimental part:
(§1) For the binding studies, fluorescence polarization (FP) assays w-re performed similarly as was previously reported [Du et al. (2007) “High-throughput screening fluorescence polarization assay for tumor-specific Hsp90” J. Biomol. Screen 12:915-924]. Briefly, FP measurements were performed on an Analyst GT instrument (Molecular Devices, Sunnyvale, Calif.). Measurements were taken in black 96-well microtiter plates (Corning #3650) where both the excitation and the emission occurred from the top of the well. A stock of 10 μM cy3B-GM was prepared in DMSO and diluted with HFB buffer (20 mM Hepes (K), pH 7.3, 50 mM KCl, 2 mM DTT, 5 mM MgCl2, 20 mM Na2MoO4, and 0.01% NP40 with 0.1 mg/mL BGG). The test compounds were dissolved in DMSO and added at several concentrations to the HFB assay buffer containing both 6 nM cy3B-GM and transgenic mouse brain lysate (6 μg JNPL3 lysate) or human cancer cell lysate (3 μg SKBr3 lysate) in a final volume of 100 μL. Drugs were added to triplicate wells. Free cy3B-GM (6 nM cy3B-GM), bound cy3B-GM (6 nM cy3B-GM+lysate, as indicated above) and buffer only containing wells (background) were included as controls in each plate. Plates were incubated on a shake at 4° C., and polarization values measured at 24 h. Percentage inhibition was calculated as follows: (% Control)=100−((mPc−mPf)/(mPb−mPf))×100, where mPc is the recorded mP from compound wells, mPf is the average recorded mP from cy3B-GM-only wells, and mPb is the average recorded mP from wells containing both cy3B-GM and lysate, and plotted against values of competitor concentrations. The inhibitor concentration at which 50% of bound cy3B-GM was displaced was obtained by fitting the data using a nonlinear regression analysis as implemented in Prism 4.0 (GraphPad Software).
Background: Polarisation of emitted light reports the rotation of a fluorescent probe.

The test system of the next test is Hsp90. The description is as above. Conditions: fluorescence polarization, cy3B-GM displacement; the table does not say which lysate (SKBr3 or JNPL3). As for the experimental part: as §1
Another test deals with T1, hERG (Homo sapiens, UniProt Q12809).
T1 construct: purchased Invitrogen PV5365
In words: hERG fluorescence polarization assay (Predictor hERG kit). It counts as binding. The conditions noted are these: Predictor hERG fluorescence polarization, displacement of tracer red, read after 4 hrs; read-out: hERG assay. Here is the method: hERG Fluorescence Polarization Assay:
Following the manufacturer's protocol, the hERG assay was performed using Predictor hERG Fluorescence Polarization Assay kit (catalog no. PV5365) from Invitrogen. Briefly, FP measurements were performed on an Analyst GT instrument (Molecular Devices, Sunnyvale, Calif.). Measurements were taken in black 384-well plates (Corning #3677), where both the excitation and the emission occurred from the top of the well. The test compounds were dissolved in DMSO and added at several concentrations to the Predictor hERG FP assay buffer containing 4 nM Predictor hERG tracer red and 10 μL of Predictor hERG membrane in a final volume of 20 μL. Drugs were added to triplicate wells. E-4031 as positive control was included in each plate. Plates were then kept on a shaker at room temperature and polarization values were measured after 4 hrs. The inhibition concentration at which 50% of tracer red gets displaced was obtained by fitting the data using a nonlinear regression analysis as implemented in Prism 5.0 (GraphPad Software).

The structures appear in SMILES notation. pIC50: −log10 of the molar value.

T1 sequence (Q12809 whole entry): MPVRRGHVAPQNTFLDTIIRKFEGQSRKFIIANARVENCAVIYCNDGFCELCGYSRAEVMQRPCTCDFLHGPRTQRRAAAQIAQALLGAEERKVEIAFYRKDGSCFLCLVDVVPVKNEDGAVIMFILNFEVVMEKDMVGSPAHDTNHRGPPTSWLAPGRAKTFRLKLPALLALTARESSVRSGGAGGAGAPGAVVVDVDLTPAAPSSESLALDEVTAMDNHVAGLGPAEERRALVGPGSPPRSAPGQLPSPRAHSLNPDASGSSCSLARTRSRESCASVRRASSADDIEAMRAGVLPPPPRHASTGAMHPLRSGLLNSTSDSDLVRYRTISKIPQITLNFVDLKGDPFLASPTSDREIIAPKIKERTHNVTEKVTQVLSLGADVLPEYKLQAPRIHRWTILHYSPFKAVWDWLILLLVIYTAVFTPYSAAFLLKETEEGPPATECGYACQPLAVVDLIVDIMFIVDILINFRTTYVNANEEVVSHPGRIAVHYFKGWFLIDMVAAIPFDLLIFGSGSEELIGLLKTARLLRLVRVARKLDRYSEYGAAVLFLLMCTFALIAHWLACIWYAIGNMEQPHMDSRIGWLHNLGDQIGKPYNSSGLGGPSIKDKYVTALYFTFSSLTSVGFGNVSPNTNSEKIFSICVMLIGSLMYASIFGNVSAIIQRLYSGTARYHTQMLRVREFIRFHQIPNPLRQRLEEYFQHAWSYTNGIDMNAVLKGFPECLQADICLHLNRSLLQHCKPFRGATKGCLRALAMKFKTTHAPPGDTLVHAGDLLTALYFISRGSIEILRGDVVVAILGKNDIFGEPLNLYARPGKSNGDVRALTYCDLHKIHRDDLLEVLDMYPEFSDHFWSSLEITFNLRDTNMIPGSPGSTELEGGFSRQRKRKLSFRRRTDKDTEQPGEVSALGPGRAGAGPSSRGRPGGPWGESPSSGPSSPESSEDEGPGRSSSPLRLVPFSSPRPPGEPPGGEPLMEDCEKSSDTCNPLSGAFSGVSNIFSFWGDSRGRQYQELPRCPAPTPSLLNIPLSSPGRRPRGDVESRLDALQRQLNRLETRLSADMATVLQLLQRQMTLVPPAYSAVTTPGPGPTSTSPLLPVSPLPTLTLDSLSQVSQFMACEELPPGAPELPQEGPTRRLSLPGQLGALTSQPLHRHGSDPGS

Regarding `C#Cc1cc2c(cc1Sc1nc3c(N)ncnc3n1CCCNS(=O)(=O)C1CC1)OCO2` [Compound 1B-28, Cyclopropanesulfonic acid {3-[6-amino-8-(6-ethynyl-benzo[1,3]dioxol-5-ylsulfanyl)-purin-9-yl]-propyl}-amide], the “Hsp90 binding affinity (in words, referring to Table 12)” value (from here on “Hsp90 binding affinity”) in the test with Hsp90 (SKBr3 lysate) is “high level of binding affinity”. The pIC50 in the test on Hsp90 was 7.28; at hERG, below 4.00.
As to `CC(C)NS(=O)(=O)CCCn1c(Sc2cc3c(cc2I)OCO3)nc2c(N)ncnc21` [Compound 1A-15, 3-[6-Amino-8-(6-iodo-benzo[1,3]dioxol-5-ylsulfanyl)-purin-9-yl]-propane-1-sulfonic acid isopropylamide], the “Hsp90 binding affinity” value in the test with Hsp90 (SKBr3 lysate) is given as “high level of binding affinity”. In addition, the pIC50 in the test on Hsp90 is 7.69; on hERG, below 4.00.
`C#Cc1cc2c(cc1Sc1nc3c(N)ncnc3n1CCCNC(=O)C1CC1)OCO2` [Compound 1B-45, Cyclopropanecarboxylic acid {3-(6-amino-8-(6-ethynyl-benzo[1,3]dioxol-5-ylsulfanyl)-purin-9-yl]-propyl}-amide]: the “Hsp90 binding affinity” value in the test on Hsp90 (SKBr3 lysate) is reported as “high level of binding affinity”. Besides, the pIC50 was 7.43 with Hsp90 and below 4.00 on hERG.
For `C#Cc1cc2c(cc1Sc1nc3c(N)ncnc3n1CCCNC(=O)C(C)(C)C)OCO2` [Compound 1B-43, N-{3-[6-Amino-8-(6-ethynyl-benzo[1,3]dioxol-5-ylsulfanyl)-purin-9-yl]-propyl}-2,2-dimethyl-propionamide], in that order: “high level of binding affinity”, 7.55 and below 4.00.
With `Nc1nc(F)nc2c1nc(Cc1cc3c(cc1I)OCO3)n2CCCNS(=O)(=O)C1CC1` [Compound 4A-28, N-(3-(6-amino-2-fluoro-8-((6-iodobenzo[d][1,3]dioxol-5-yl)methyl)-9H-purin-9-yl)propyl)cyclopropane-sulfonamide], in the test on Hsp90 (SKBr3 lysate), the “Hsp90 binding affinity” value is on record as “high level of binding affinity”. For the same compound, the pIC50 in the test on Hsp90 was 7.62; at hERG, below 4.00.
For `CC(C)S(=O)(=O)NCCCn1c(Sc2cc3c(cc2I)OCO3)nc2c(N)ncnc21` [Compound 1A-22, Propane-2-sulfonic acid {3-[6-amino-8-(6-iodo-benzo[1,3]dioxol-5-ylsulfanyl)-purin-9-yl]-propyl}-amide], in that order: “high level of binding affinity”, 7.33 and below 4.00.
Regarding `CC(C)(C)[S+]([O-])NCCCn1c(Cc2cc3c(cc2I)OCO3)nc2c(N)nc(F)nc21` (stereo not drawn) [Compound 4A-26, N-(3-(6-amino-2-fluoro-8-((6-iodobenzo[d][1,3]dioxol-5-yl)methyl)-9H-purin-9-yl)propyl)-2-methylpropane-2-sulfinamide], the “Hsp90 binding affinity” value in the test with Hsp90 (SKBr3 lysate) is on record as “high level of binding affinity”. Also, the pIC50 with Hsp90 was 7.58; on hERG, below 4.00.

These data come from patent US9926321B2, “Hsp90 inhibitors” (Sloan-Kettering Institute for Cancer Research, priority 2011, dated 2018).
